What is called IC50 is the midpoint of a concentration-inhibition curve.

The target of the assay is N-His-Tb-BIR3 (241-356, XIAP) (Homo sapiens (Human), UniProt P98170). Briefly: biochemical. Type of assay: binding. The following applies: fluoresceinated modified SMAC peptide, fluorescence polarization; read-out: XIAP BIR3 FPA IC50. Background: Polarisation of emitted light reports the rotation of a fluorescent probe.

For the compound `CN[C@@H](C)C(=O)N[C@H](C(=O)N1Cc2cc(NC(=O)CCc3ccc(C(=O)N[C@H]4C[C@@H](C(=O)N[C@@H]5CCCc6ccccc65)N(C(=O)[C@@H](NC(=O)[C@H](C)NC)C(C)(C)C)C4)cc3)ccc2C[C@H]1C(=O)N[C@@H]1CCCc2ccccc21)C(C)(C)C` [Example 8, (S)-2-((S)-3,3-Dimethyl-2-((S)-2-(methylamino)propanamido)butanoyl)-7-(3-(4-(((3S,5S)-1-((S)-3,3-dimethyl-2-((S)-2-(methylamino)propanamido)butanoyl)-5-(((R)-1,2,3,4-tetrahydronaphthalen-1-yl)carbamoyl)pyrrolidin-3-yl)carbamoyl)phenyl)propanamido)-N-((R)-1,2,3,4-tetrahydronaphthalen-1-yl)-1,2,3,4-tetrahydroisoquinoline-3-carboxamide], the IC50 was 57 nM. As for `CN[C@@H](C)C(=O)N[C@H](C(=O)N1Cc2cc(NC(=O)c3cccc(CO[C@H]4C[C@@H](C(=O)N[C@@H]5CCCc6ccccc65)N(C(=O)[C@@H](NC(=O)[C@H](C)NC)C(C)(C)C)C4)c3)ccc2C[C@H]1C(=O)N[C@@H]1CCCc2ccccc21)C(C)(C)C` [Example 52, (S)-2-((S)-3,3-Dimethyl-2-((S)-2-(methylamino)propanamido)butanoyl)-7-(3-((((3S,5S)-1-((S)-3,3-dimethyl-2-((S)-2-(methylamino)propanamido)butanoyl)-5-(((R)-1,2,3,4-tetrahydronaphthalen-1-yl)carbamoyl)pyrrolidin-3-yl)oxy)methyl)benzamido)-N-((R)-1,2,3,4-tetrahydronaphthalen-1-yl)-1,2,3,4-tetrahydroisoquinoline-3-carboxamide], the figure is 42 nM; as for `CCN[C@@H](C)C(=O)N[C@H](C(=O)N[C@H](C(=O)N1Cc2cc(OCc3ccc(C(=O)N[C@H]4C[C@@H](C(=O)N[C@@H]5CCCc6ccccc65)N(C(=O)[C@@H](NC(=O)[C@H](C)NC)C(C)(C)C)C4)cc3)ccc2C[C@H]1C(=O)N[C@@H]1CCCc2ccccc21)C(C)(C)C)C(C)(C)C` [Example 40, (S)-7-((4-(((3S,5S)-1-((S)-3,3-Dimethyl-2-((S)-2-(methylamino)propanamido)butanoyl)-5-(((R)-1,2,3,4-tetrahydronaphthalen-1-yl)carbamoyl)pyrrolidin-3-yl)carbamoyl)benzyl)oxy)-2-((S)-2-((S)-2-((S)-2-(ethylamino)propanamido)-3,3-dimethylbutanamido)-3,3-dimethylbutanoyl)-N-((R)-1,2,3,4-tetrahydronaphthalen-1-yl)-1,2,3,4-tetrahydroisoquinoline-3-carboxamide], 660 nM.

`CN[C@@H](C)C(=O)N[C@H](C(=O)N1Cc2cc(NC(=O)c3ccc(C(=O)Nc4ccc5c(c4)CN(C(=O)[C@@H](NC(=O)[C@H](C)NC)C(C)(C)C)[C@H](C(=O)N[C@@H](COC)c4ccccc4)C5)cc3)ccc2C[C@H]1C(=O)N[C@@H](COC)c1ccccc1)C(C)(C)C` [Example 14, N^1,N^4-bis((S)-2-((S)-3,3-Dimethyl-2-((S)-2-(methylamino)propanamido)butanoyl)-3-(((R)-2-methoxy-1-phenylethyl)carbamoyl)-1,2,3,4-tetrahydroisoquinolin-7-yl)terephthalamide]: the IC50 is 130 nM.

As for `CN[C@@H](C)C(=O)N[C@H](C(=O)N1Cc2cc(C(=O)NC3(C(=O)N[C@H]4C[C@@H](C(=O)N[C@@H]5CCCc6ccccc65)N(C(=O)[C@@H](NC(=O)[C@H](C)NC)C(C)(C)C)C4)CC3)ccc2C[C@H]1C(=O)N[C@@H]1CCCc2ccccc21)C(C)(C)C` [Example 28, (S)-2-((S)-3,3-Dimethyl-2-((S)-2-(methylamino)propanamido)butanoyl)-N7-(1-(((3S,5S)-1-((S)-3,3-dimethyl-2-((S)-2-(methylamino)propanamido)butanoyl)-5-(((R)-1,2,3,4-tetrahydronaphthalen-1-yl)carbamoyl)pyrrolidin-3-yl)carbamoyl)cyclopropyl)-N3((R)-1,2,3,4-tetrahydronaphthalen-1-yl)-1,2,3,4-tetrahydroisoquinoline-3,7-dicarboxamide], the half-maximal inhibitory concentration (IC50) came to 98 nM. As for `CN[C@@H](C)C(=O)N[C@H](C(=O)N1Cc2cc(NCc3ccc(C(=O)N[C@H]4C[C@@H](C(=O)N[C@@H]5CCCc6ccccc65)N(C(=O)[C@@H](NC(=O)[C@H](C)NC)C(C)(C)C)C4)cc3)ccc2C[C@H]1C(=O)N[C@@H]1CCCc2ccccc21)C(C)(C)C` [Example 31, (S)-2-((S)-3,3-Dimethyl-2-((S)-2-(methylamino)propanamido)butanoyl)-7-((4-(((3S,5S)-1-((S)-3,3-dimethyl-2-((S)-2-(methylamino)propanamido)butanoyl)-5-(((R)-1,2,3,4-tetrahydronaphthalen-1-yl)carbamoyl)pyrrolidin-3-yl)carbamoyl)benzyl)amino)-N—((R)-1,2,3,4-tetrahydronaphthalen-1-yl)-1,2,3,4-tetrahydroisoquinoline-3-carboxamide], the figure is 71 nM; as for `CN[C@@H](C)C(=O)N[C@H](C(=O)N1Cc2ccc(OCc3ccc(C(=O)N[C@H]4C[C@@H](C(=O)NC5CCCc6ccccc65)N(C(=O)[C@@H](NC(=O)[C@H](C)NC)C(C)(C)C)C4)cc3)cc2C[C@@H]1C(=O)NC1CCCc2ccccc21)C(C)(C)C` (stereo partly drawn) [Example 42, (R)-2-((S)-3,3-Dimethyl-2-((S)-2-(methylamino)propanamido)butanoyl)-6-((4-(((3S,5S)-1-((S)-3,3-dimethyl-2-((5)-2-(methylamino)propanamido)butanoyl)-5-(((R)-1,2,3,4-tetrahydronaphthalen-1-yl)carbamoyl)pyrrolidin-3-yl)carbamoyl)benzyl)oxy)-N-((R)-1,2,3,4-tetrahydronaphthalen-1-yl)-1,2,3,4-tetrahydroisoquinoline-3-carboxamide], 240 nM; as for `CN[C@@H](C)C(=O)N[C@H](C(=O)N1Cc2cc(NC(=O)c3ccc(C(=O)Nc4ccc5c(c4)CN(C(=O)[C@@H](NC(=O)[C@H](C)NC)C(C)(C)C)[C@H](C(=O)N[C@H](C)c4ccccc4F)C5)cc3)ccc2C[C@H]1C(=O)N[C@H](C)c1ccccc1F)C(C)(C)C` [Example 12, N^1,N^4-bis((S)-2-((S)-3,3-Dimethyl-2-((S)-2-(methylamino)propanamido)butanoyl)-3-(((R)-1-(2-fluorophenyl)ethyl)carbamoyl)-1,2,3,4-tetrahydroisoquinolin-7-yl)terephthalamide], 130 nM. As for `CN[C@@H](C)C(=O)N[C@H](C(=O)N1Cc2cc(NC(=O)c3ccc(CO[C@H]4C[C@@H](C(=O)N[C@@H]5CCCc6ccccc65)N(C(=O)[C@@H](NC(=O)[C@H](C)NC)C(C)(C)C)C4)cc3)ccc2C[C@H]1C(=O)N[C@@H]1CCCc2ccccc21)C(C)(C)C` [Example 47, (S)-2-((S)-3,3-Dimethyl-2-((S)-2-(methylamino)propanamido)butanoyl)-7-(4-((((3S,5S)-1-((S)-3,3-dimethyl-2-((S)-2-(methylamino)propanamido)butanoyl)-5-(((R)-1,2,3,4-tetrahydronaphthalen-1-yl)carbamoyl)pyrrolidin-3-yl)oxy)methyl)benzamido)-N—((R)-1,2,3,4-tetrahydronaphthalen-1-yl)-1,2,3,4-tetrahydroisoquinoline-3-carboxamide], the figure is 67 nM; as for `CN[C@@H](C)C(=O)N[C@H](C(=O)N1C[C@@H](NC(=O)c2ccc(C(=O)Nc3ccc4c(c3)CN(C(=O)[C@@H](NC(=O)[C@@H](NC)C(C)C)C(C)(C)C)[C@H](C(=O)N[C@@H]3CCCc5ccccc53)C4)cc2)C[C@H]1C(=O)N[C@@H]1CCCc2ccccc21)C(C)(C)C` [Example 35], 200 nM.

The values are drawn from patent US9783573B2, “IAP antagonists” (BRISTOL-MYERS SQUIBB COMPANY, priority 2012, dated 2017).
